Experimental data published in patent publication US20060252707A1, “Pharmaceutical composition for the treatment and/or the prevention of atherosclerosis from infectious origin” (UNIVERSITE DE LIEGE, priority 2003, published 2006).

Columns and labels:
Format in all cases: cell-based, human
[1] = system: THP-1 cells conditioned with Chlamydia pneumoniae; test: Oxidant activity (ethylene production from KMB, gas liquid chromatography) of THP-1 cells conditioned with Chlamydia pneumoniae, then stimulated by PMA; conditions: for Ethylene: % of THP-1 + Chlamydia
Method: This model has been described in details in Mouithys Mickalad et al. (Biochem Biophys Res Comm 2001, 287: 781-788). Treatment of the Cells with Chlamydia pneumoniae:
The monocytes (in multiwell plates, 2×10^6 cells/well) are conditioned by a pre-incubation of 19 hours with elementary bodies of Chlamydia pneumoniae (at a dose equivalent to a mean endotoxin concentration of 3.3 pg). The elementary bodies are obtained by Chlamydia culture in MacCoy cells (American Type Culture Collection, Rockville, USA).
(§1) After incubation with C. pneumoniae, the cells are washed and detached from the wells; they are put in sterile vials and an oxidable substrate, α-keto-methyl butyric acid (KMB) at 10^−3 M, is added. The vial is sealed and the following reagents are added by needle puncture. through the septum: 200 U horseradish peroxidase (HRP) and 10^−7 M phorbol myristate acetate (PMA).
(§2) PMA is a monocyte activator, enhancing the superoxide anion production by these cells. Superoxide anion dismutates into hydrogen peroxide (H2O2), which is used by HRP to form more oxidant species, able to oxidize KMB, releasing ethylene. After 3 hours of incubation at 37° C, ethylene, which has accumulated in the gaseous phase of the sealed vial is measured by gas liquid chromatography, on a Porapak T column (TM) equipped with flame ionisation detector. These assays can be made with the prior addition of a reagent able to inhibit or to stimulate the monocytes, the reagent being added, either at pre-incubation (at the same time as the Chlamydia EB), or at the moment of PMA activation.

[2] = system: THP-1 cells conditioned with Escherichia Coli endotoxin (LPS); test: Oxidant activity (ethylene production) of THP-1 cells conditioned with Escherichia Coli endotoxin (LPS), then stimulated by PMA; conditions: for Ethylene: FIG. 9 part 2, % of THP-1 + LPS, PMA 10^−7 M
Method: FIG. 9 represents the effects of hydrocortisone (HCT) on the oxidant activity of THP-1 cells conditioned either with Chlamydia pneumoniae (part 1; n=13) or with Escherichia Coli endotoxin (LPS) (part 2), and then stimuled by PMA 10^−7 M. Ethylene is expressed in % of the value measured for THP-1 cells incubated with Chlamydia (column 2 for part 1), or incubated with LPS (column 1 for par 2).
as §1, §2
Two glucocorticoids were tested: hydrocortisone and methylprednisolone. […] On the contrary, HCT is an inhibitor on the oxidation rate when the cells are conditioned with endotoxins (LPS) of Escherichia coli (FIG. 9 part 2, columns 2, 3 and 4) (Ethylene values are expressed in % of the control cells=THP-1 cells stimulated by PMA 10^−7 M after pre-incubation with Chlamydia (part 1, column 2) or LPS ([…]

[3] = system: nuclear transcription factor kappaB (NF-κB); test: Activation of NF-κB (binding to DNA) by electrophoretic mobility shift assay in THP-1 cells pre-incubated with Chlamydia; conditions: for NF-κB relative value (%): THP-1 + Chlamydia, % of THP-1 without preincubation with C pneumoniae (FIG. 7)
Method: FIG. 7 represents the effects of pre-incubation with Chlamydia on the activity of the nuclear transcription factor kappaB (NF-kB) (column 2). NF-kB is expressed in % of column 1 (THP-1 cells without preincubation with C pneumoniae)
The activation of NF-κB was measured by the technique of <<electrophoretic mobility shift assay>> (EMSA) (Schoonbroodt et al., 2000, J Immunol. 164: 4292-4300; Nys et al., 2003, Nitric Oxide 9: 33-43) (FIG. 7). The activation of NF-κB is expressed in % of control cells (cells which have not been pre-incubated with Chlamydia) (column 1). The incubation of monocytes with C. pneumoniae activates the NF-κB binding to DNA (FIG. 7, column 2).

TNFα = TNFα production (ELISA, culture supernatant) by THP-1 cells pre-incubated with Chlamydia pneumoniae; conditions: 10^−9 M to 10^−5 M; THP-1 pre-incubated (19h) with Chlamydia
Method: (§3) By using this model, one may verify that the monocyte incubation with C. pneumoniae during 19 hours, enhances the production of TNFα(FIG. 6, part 1) and IL-8 ([…]), as measured by immunological methods (ELISA type) in the culture supernatant.

IL-8 = IL-8 production (ELISA, culture supernatant) by THP-1 cells pre-incubated with Chlamydia pneumoniae; conditions: 10^−9 M to 10^−5 M; THP-1 pre-incubated (19h) with Chlamydia
Method: as §3

p22^phox = test: Gene expression (PCR) of NADPH-oxidase subunit p22phox in THP-1 cells incubated with Chlamydia; conditions: FIG. 16; 10^−4 to 10^−6 M
Method: FIG. 16 represents the genetic expression of one of the subunits of NADPH-oxidase, the p22^phox, and the effects of glucocorticoids, hydrocortisone (HCT) and methylprednisolone (MPL) (data are expressed as relative values by comparison with a reference gene).
By the PCR (<<polymerase chain reaction>>) method, it was observed that the incubation of monocytes with C. pneumoniae increased the expression of the genes (FIG. 8, column 2 compared to column 1) coding for interleukines 1β (IL-1β) (FIG. 8, part 1), 6 (IL-6) (FIG. 8, part 2) and 8 (IL-8) (FIG. 8, part 3), coding for inducible cyclo-oxygenase (COX-2) (FIG. 8, part 4) and coding for one of the subunits of NADPH-oxidase, the p22 protein (p22^phox) (FIG. 8, part 5) (results are presented as relative values by comparison with a reference gene).

THP-1 cell line = test: Model of foam cell formation from THP-1 monocytes (Chlamydia pneumoniae, then LDL or liposomes, Oil Red O); conditions: LDL
Method: A model of foam cell formation from monocytes (THP-1 cell line) was developed. The cells are incubated for 19 hours with Chlamydia pneumoniae. This incubation is followed by the addition of human LDL or liposomes, and another incubation period of 48 hours. At the end of this second period of incubation, the cells are fixed and stained with oil Red O (Sigma, Belgium) (Smirnova et al., 2004, Am J Physiol Heart Circ Physiol. March 11 (Epub ahead of print) to highlight the foam cells. When drugs are used in this model, they are added at the same time as the LDL or liposomes. LDL are prepared from human blood drawn on EDTA. They are isolated by sequential flotation centrifugation with increased concentrations of KBr. After their isolation, LDL are dialysed, sterilised by filtration and their purity is confirmed by electrophoresis. Liposomes are lipid vesicles prepared by extrusion with cholesterol esters and phospholipids, mimicking lipoproteins.

SMILES: C[C@]12CCC(=O)C=C1CC[C@@H]1[C@@H]2[C@@H](O)C[C@@]2(C)[C@H]1CC[C@]2(O)C(=O)CO [HCT, hydrocortisone]
- Ethylene ([1]; FIG. 9 part 1, 10^−4 M, PMA 10^−7 M): 108%
- Ethylene ([1]; FIG. 9 part 1, 10^−5 M, PMA 10^−7 M): 119%
- Ethylene ([1]; FIG. 9 part 1, 10^−6 M, PMA 10^−7 M): 139%
- Ethylene ([1]; FIG. 19, drug alone 10^−4 M, pre-incubation with Chlamydia): 84.0%
- Ethylene ([1]; FIG. 19, drug alone 10^−5 M, pre-incubation with Chlamydia): 116.0%
- Ethylene ([1]; FIG. 20, drug alone 10^−4 M, pre-incubation with Chlamydia): 98.0%
- Ethylene ([1]; FIG. 20, drug alone 10^−5 M, pre-incubation with Chlamydia): 85.0%
- Ethylene ([1]; FIG. 21, drug alone 10^−4 M, pre-incubation with Chlamydia): 104.0%
- Ethylene ([1]; FIG. 21, drug alone 10^−5 M, pre-incubation with Chlamydia): 72.0%
- Ethylene ([1]; FIG. 22, drug alone 10^−4 M, pre-incubation with Chlamydia): 118.0%
- Ethylene ([1]; FIG. 22, drug alone 10^−5 M, pre-incubation with Chlamydia): 68.1%
- effect on oxidant activity / oxidation rate ([1]; drug added at cell conditioning with Chlamydia (pre-incubation 19 hours), then PMA 10^−7 M): either does not modify the oxidant capacity, or even increases the oxidation rate
- Ethylene ([2]; 10^−4 M): 19%
- Ethylene ([2]; 10^−5 M): 50%
- Ethylene ([2]; 10^−6 M): 57%
- effect on oxidation rate ([2]; cells conditioned with endotoxins (LPS) of Escherichia coli, 10^−4 to 10^−6 M): inhibitor
- NF-κB relative value (%) ([3]; 10^−5 M): 396%
- NF-κB relative value (%) ([3]; 10^−6 M): 480%
- effect on the activation of NF-κB ([3]; at 10^−5 and 10^−6 M): without significant effect
- activity of NF-κB ([3]; at 10^−6 M): slightly stimulated
- effect on production of TNFα (TNFα): dose-dependent inhibiting effect
- effect on production of IL-8 (IL-8): dose-dependent inhibiting effect
- effect on gene expression of p22^phox (p22^phox): inhibitors
- effect on transformation into foam cells (THP-1 cell line; 10^−5 M): favouring effect
- effect on transformation into foam cells (THP-1 cell line; at 10^−5 and 10^−6 M): does not inhibit the transformation into foam cells
